Reference: patent US20260092057A1, “BCL-XL/BCL-2 DEGRADERS AND USES THEREOF” (Kymera Therapeutics, Inc., priority 2022, published 2026)

Key:
Caki-2 cells = test: CTG (CellTiter-Glo) cell viability assay, Caki-2; format: cell-based; conditions: Homo sapiens, CAKI-2, 72 h, Caki-2, 3-day; read-out: CTG Chempartner/PHA- Caki-2 3-day: Average external-IC50
Experimental: (§1) Compound-mediated viability effect on MOLT-4 and Caki-2 was quantitatively determined using the CellTiter-Glo® Luminescent Cell Viability Assay kit from Promega (Catalog number G7570) following manufacturer's recommended procedures. Briefly, MOLT-4 and Caki-2 cells were seeded into 384 well plates (Grenier Bio-One, Catalog number 781080) with a density of 10,000 cells per well. Compounds were then added to the assay plate with final top concentration of 10 µM and 1:3 dilution series with total of 9 doses. The final DMSO concentration is normalized to 0.2%. The assay plates were incubated at 37° C. for 3 days under 5% CO2. Then the assay plate was equilibrated at room temperature for 10 minutes. To determine cell viability, 30 uL CellTiter Glo reagent was added to each well and the assay plate was centrifuged at 1000 rpm for 30 second, incubated at room temperature for 10 min, and analyzed by detecting the luminescence using a multimode plate reader (EnVision 2105, PerkinElmer). The data was then analyzed by software Prism 7.0 from GraphPad and the dose response curves are fit using a three-parameter logistic equation to calculate IC50.
(§2) The letter codes for MOLT-4 IC50 include: A (<0.1 μM); B (0.1-1.0 μM); C (>1.0-3.0 μM); and D (>3.0 μM). The letter codes for Caki-2 IC50 include: A (<5 μM); B (5-10 μM); C (>10-30.0 μM); and D (>30.0 μM).

MOLT-4 cells = test: CTG (CellTiter-Glo) cell viability assay, MOLT-4; format: cell-based; conditions: Homo sapiens, MOLT-4, 72 h, MOLT-4, 3 day; read-out: CTG Cell Viability Assay - MOLT-4 3 day: Average external-IC50
Experimental: as §1, §2

IC50 (MOLT-4 cells) [nM]	SMILES	IC50 (Caki-2 cells) [nM]
> 3000	Cc1ncsc1-c1ccc([C@H](C)NC(=O)[C@@H]2C[C@@H](O)CN2C(=O)[C@@H](NC(=O)CCCCCC(=O)NCCCNc2ccc(S(=O)(=O)NC(=O)c3ccc(N4CCC([C@H](O)c5ccccc5-c5ccc(Cl)cc5)CC4)cc3Oc3cnc4[nH]ccc4c3)cc2S(=O)(=O)C(F)(F)F)C(C)(C)C)cc1 [I-56]	> 30000
> 3000	Cc1ncsc1-c1ccc([C@H](C)NC(=O)[C@@H]2C[C@@H](O)CN2C(=O)[C@@H](NC(=O)CCCCCC(=O)N2CCN(CCCNc3ccc(S(=O)(=O)NC(=O)c4ccc(N5CCN(C)CC5)cc4Oc4cnc5[nH]ccc5c4)cc3S(=O)(=O)C(F)(F)F)CC2)C(C)(C)C)cc1 [I-57]	> 30000
> 3000	Cc1ncsc1-c1ccc([C@H](C)NC(=O)[C@@H]2C[C@@H](O)CN2C(=O)[C@@H](NC(=O)CCCCCC(=O)N(C)CCCNc2ccc(S(=O)(=O)NC(=O)c3ccc(N4CCN(Cc5ccccc5-c5ccc(Cl)cc5)CC4)cc3Oc3cnc4[nH]ccc4c3)cc2S(=O)(=O)C(F)(F)F)C(C)(C)C)cc1 [I-61]	> 30000
> 3000	Cc1ncsc1-c1ccc([C@H](C)NC(=O)[C@@H]2C[C@@H](O)CN2C(=O)[C@@H](NC(=O)CCCCCC(=O)NCCCNc2ccc(S(=O)(=O)NC(=O)c3ccc(N4CCN(Cc5ccccc5-c5ccc(Cl)cc5)CC4)cc3Oc3cnc4[nH]ccc4c3)cc2S(=O)(=O)C(F)(F)F)C(C)(C)C)cc1 [I-62]	> 30000
> 3000	Cc1ncsc1-c1ccc([C@H](C)NC(=O)[C@@H]2C[C@@H](O)CN2C(=O)[C@@H](NC(=O)CCCCCN(C)CCCNc2ccc(S(=O)(=O)NC(=O)c3ccc(N4CCC([C@@H](O)c5ccccc5-c5ccc(Cl)cc5)CC4)cc3Oc3cnc4[nH]ccc4c3)cc2S(=O)(=O)C(F)(F)F)C(C)(C)C)cc1 [I-66]	> 30000
> 3000	Cc1ncsc1-c1ccc([C@H](C)NC(=O)[C@@H]2C[C@@H](O)CN2C(=O)[C@@H](NC(=O)CCCCCC(=O)N(C)CCCNc2ccc(S(=O)(=O)NC(=O)c3ccc(N4CCC([C@@H](O)c5ccccc5-c5ccc(Cl)cc5)CC4)cc3Oc3cnc4[nH]ccc4c3)cc2S(=O)(=O)C(F)(F)F)C(C)(C)C)cc1 [I-68]	> 30000
> 3000	Cc1ncsc1-c1ccc([C@H](C)NC(=O)[C@@H]2C[C@@H](O)CN2C(=O)[C@@H](NC(=O)CCCCCC(=O)NCC[C@H](CSc2ccccc2)Nc2ccc(S(=O)(=O)NC(=O)c3ccc(N4CCC([C@H](O)c5ccccc5-c5ccc(Cl)cc5)CC4)cc3)cc2S(=O)(=O)C(F)(F)F)C(C)(C)C)cc1 [I-70]	> 30000
1000 to 3000	Cc1ncsc1-c1ccc([C@H](C)NC(=O)[C@@H]2C[C@@H](O)CN2C(=O)[C@@H](NC(=O)CCCCCC(=O)N(C)CC[C@H](CSc2ccccc2)Nc2ccc(S(=O)(=O)NC(=O)c3ccc(N4CCC(C(O)c5ccccc5-c5ccc(Cl)cc5)CC4)cc3)cc2S(=O)(=O)C(F)(F)F)C(C)(C)C)cc1 (stereo partly drawn) [I-71]	10000 to 30000
1000 to 3000	Cc1ncsc1-c1ccc([C@H](C)NC(=O)[C@@H]2C[C@@H](O)CN2C(=O)[C@@H](NC(=O)CCCCCC(=O)N(C)CC[C@H](CSc2ccccc2)Nc2ccc(S(=O)(=O)NC(=O)c3ccc(N4CCC([C@@H](O)c5ccccc5-c5ccc(Cl)cc5)CC4)cc3)cc2S(=O)(=O)C(F)(F)F)C(C)(C)C)cc1 [I-72]	10000 to 30000
> 3000	Cc1ncsc1-c1ccc([C@H](C)NC(=O)[C@@H]2C[C@@H](O)CN2C(=O)[C@@H](NC(=O)CCCCCC(=O)N(C)CC[C@H](CSc2ccccc2)Nc2ccc(S(=O)(=O)NC(=O)c3ccc(N4CCC([C@H](O)c5ccccc5-c5ccc(Cl)cc5)CC4)cc3)cc2S(=O)(=O)C(F)(F)F)C(C)(C)C)cc1 [I-73]	> 30000
100 to 1000	Cc1ncsc1-c1ccc([C@H](C)NC(=O)[C@@H]2C[C@@H](O)CN2C(=O)[C@@H](NC(=O)CCCCCN2CCC(CNc3ccc(S(=O)(=O)NC(=O)c4ccc(N5CCN(CC6=C(c7ccc(Cl)cc7)CC(C)(C)CC6)CC5)cc4Oc4cnc5[nH]ccc5c4)cc3S(=O)(=O)C(F)(F)F)CC2)C(C)(C)C)cc1 [I-75]	> 30000
> 3000	Cc1ncsc1-c1ccc([C@H](C)NC(=O)[C@@H]2C[C@@H](O)CN2C(=O)[C@@H](NC(=O)CCCCCC(=O)NCCCNc2ccc(S(=O)(=O)NC(=O)c3ccc(N4CCN(CC5=C(c6ccc(Cl)cc6)CC(C)(C)CC5)CC4)cc3Oc3cnc4[nH]ccc4c3)cc2S(=O)(=O)C(F)(F)F)C(C)(C)C)cc1 [I-76]	> 30000
100 to 1000	Cc1ncsc1-c1ccc([C@H](C)NC(=O)[C@@H]2C[C@@H](O)CN2C(=O)[C@@H](NC(=O)CCCCCN(C)CCNc2ccc(S(=O)(=O)NC(=O)c3ccc(N4CCN(CC5=C(c6ccc(Cl)cc6)CC(C)(C)CC5)CC4)cc3Oc3cnc4[nH]ccc4c3)cc2S(=O)(=O)C(F)(F)F)C(C)(C)C)cc1 [I-77]	10000 to 30000
> 3000	Cc1ncsc1-c1ccc([C@H](C)NC(=O)[C@@H]2C[C@@H](O)CN2C(=O)[C@@H](NC(=O)CCCC(=O)N2CCN(CCCNc3ccc(S(=O)(=O)NC(=O)c4ccc(N5CCN(CC6=C(c7ccc(Cl)cc7)CC(C)(C)CC6)CC5)cc4Oc4cnc5[nH]ccc5c4)cc3S(=O)(=O)C(F)(F)F)CC2)C(C)(C)C)cc1 [I-78]	> 30000
> 3000	Cc1ncsc1-c1ccc([C@H](C)NC(=O)[C@@H]2C[C@@H](O)CN2C(=O)[C@@H](NC(=O)CCC(=O)N2CCN(CCCNc3ccc(S(=O)(=O)NC(=O)c4ccc(N5CCN(CC6=C(c7ccc(Cl)cc7)CC(C)(C)CC6)CC5)cc4Oc4cnc5[nH]ccc5c4)cc3S(=O)(=O)C(F)(F)F)CC2)C(C)(C)C)cc1 [I-79]	> 30000
> 3000	Cc1ncsc1-c1ccc([C@H](C)NC(=O)[C@@H]2C[C@@H](O)CN2C(=O)[C@@H](NC(=O)CCCCCNc2ccc(S(=O)(=O)NC(=O)c3ccc(N4CCN(CC5=C(c6ccc(Cl)cc6)CC(C)(C)CC5)CC4)cc3Oc3cnc4[nH]ccc4c3)cc2S(=O)(=O)C(F)(F)F)C(C)(C)C)cc1 [I-80]	> 30000
1000 to 3000	Cc1ncsc1-c1ccc([C@H](C)NC(=O)[C@@H]2C[C@@H](O)CN2C(=O)[C@@H](NC(=O)CCCCCC(=O)NCC[C@H](CSc2ccccc2)Nc2ccc(S(=O)(=O)NC(=O)c3ccc(N4CCC([C@@H](O)c5ccccc5-c5ccc(Cl)cc5)CC4)cc3)cc2S(=O)(=O)C(F)(F)F)C(C)(C)C)cc1 [I-82]	10000 to 30000
> 3000	Cc1ncsc1-c1ccc([C@H](C)NC(=O)[C@@H]2C[C@@H](O)CN2C(=O)[C@@H](NC(=O)CCCCCC(=O)N2CCC(NCCCNc3ccc(S(=O)(=O)NC(=O)c4ccc(N5CCN(CC6=C(c7ccc(Cl)cc7)CC(C)(C)CC6)CC5)cc4Oc4cnc5[nH]ccc5c4)cc3S(=O)(=O)C(F)(F)F)CC2)C(C)(C)C)cc1 [I-87]	> 30000
1000 to 3000	Cc1ncsc1-c1ccc([C@H](C)NC(=O)[C@@H]2C[C@@H](O)CN2C(=O)[C@@H](NC(=O)CCCCCC(=O)N2CCN(CC[C@H](CSc3ccccc3)Nc3ccc(S(=O)(=O)NC(=O)c4ccc(N5CCC6(CC5)CC(N5CCC[C@H]5c5ccccc5C5CC5)C6)cc4)cc3S(=O)(=O)C(F)(F)F)CC2)C(C)(C)C)cc1 [I-88]	> 30000
> 3000	Cc1ncsc1-c1ccc([C@H](C)NC(=O)[C@@H]2C[C@@H](O)CN2C(=O)[C@@H](NC(=O)C2CCN(c3ccc(N(C)CCCNc4ccc(S(=O)(=O)NC(=O)c5ccc(N6CCN(CC7=C(c8ccc(Cl)cc8)CC(C)(C)CC7)CC6)cc5Oc5cnc6[nH]ccc6c5)cc4S(=O)(=O)C(F)(F)F)cc3)CC2)C(C)(C)C)cc1 [I-89]	> 30000
> 3000	Cc1ncsc1-c1ccc([C@H](C)NC(=O)[C@@H]2C[C@@H](O)CN2C(=O)[C@@H](NC(=O)C2CCN(C3CCN(CCCNc4ccc(S(=O)(=O)NC(=O)c5ccc(N6CCN(CC7=C(c8ccc(Cl)cc8)CC(C)(C)CC7)CC6)cc5Oc5cnc6[nH]ccc6c5)cc4S(=O)(=O)C(F)(F)F)CC3)CC2)C(C)(C)C)cc1 [I-90]	> 30000
> 3000	Cc1ncsc1-c1ccc([C@H](C)NC(=O)[C@@H]2C[C@@H](N)CN2C(=O)[C@@H](NC(=O)C2CCN(CCCNc3ccc(S(=O)(=O)NC(=O)c4ccc(N5CCC([C@H](O)c6ccccc6-c6ccc(Cl)cc6)CC5)cc4Oc4cnc5[nH]ccc5c4)cc3S(=O)(=O)C(F)(F)F)CC2)C(C)(C)C)cc1 [I-92]	> 30000
1000 to 3000	Cc1ncsc1-c1ccc([C@H](C)NC(=O)[C@@H]2C[C@@H](O)CN2C(=O)[C@@H](NC(=O)CCCCCCC(=O)N2CCN(C[C@]3(C)CCC(c4ccc(Cl)cc4)=C(CN4CCN(c5ccc(C(=O)NS(=O)(=O)c6ccc(NCCN7CCOCC7)c(S(=O)(=O)C(F)(F)F)c6)c(Oc6cnc7[nH]ccc7c6)c5)CC4)C3)CC2)C(C)(C)C)cc1 [I-93]	> 30000
> 3000	Cc1ncsc1-c1ccc([C@H](C)NC(=O)[C@@H]2C[C@@H](O)CN2C(=O)[C@@H](NC(=O)CCCCCC(=O)N[C@@H]2CCN(CCCNc3ccc(S(=O)(=O)NC(=O)c4ccc(N5CCN(CC6=C(c7ccc(Cl)cc7)CC(C)(C)CC6)CC5)cc4Oc4cnc5[nH]ccc5c4)cc3S(=O)(=O)C(F)(F)F)C2)C(C)(C)C)cc1 [I-95]	> 30000
